The values that follow come from article PMC8593678, “Berberine Improves Irinotecan-Induced Intestinal Mucositis Without Impairing the Anti-colorectal Cancer Efficacy of Irinotecan by Inhibiting Bacterial β-glucuronidase” (Frontiers in Pharmacology, 2021).

This test has as its target T1, β-glucuronidase (GUS) (Escherichia coli, UniProt P05804).
T1 construct: gene uidA
Nature of the test: fluorescent 4-MUG hydrolysis assay with purchased E. coli GUS; Lineweaver-Burk plots. It counts as biochemical.

T1 sequence (P05804 whole entry): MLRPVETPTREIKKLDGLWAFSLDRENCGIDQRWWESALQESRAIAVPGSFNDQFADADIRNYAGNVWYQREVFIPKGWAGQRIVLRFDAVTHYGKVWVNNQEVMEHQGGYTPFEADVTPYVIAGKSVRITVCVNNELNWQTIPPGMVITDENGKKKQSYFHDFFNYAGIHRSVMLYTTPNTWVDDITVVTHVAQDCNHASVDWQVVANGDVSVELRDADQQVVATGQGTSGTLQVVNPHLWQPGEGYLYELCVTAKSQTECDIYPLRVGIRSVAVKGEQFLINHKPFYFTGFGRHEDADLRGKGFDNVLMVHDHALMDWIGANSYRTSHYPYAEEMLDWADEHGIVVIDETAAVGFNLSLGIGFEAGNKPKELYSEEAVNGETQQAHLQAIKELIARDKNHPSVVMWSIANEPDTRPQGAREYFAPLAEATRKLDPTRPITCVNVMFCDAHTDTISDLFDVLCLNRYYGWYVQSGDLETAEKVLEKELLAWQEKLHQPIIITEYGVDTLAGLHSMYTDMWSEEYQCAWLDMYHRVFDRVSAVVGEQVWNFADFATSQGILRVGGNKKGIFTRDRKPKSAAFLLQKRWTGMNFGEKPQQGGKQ

On to `COc1ccc2cc3[n+](cc2c1OC)CCc1cc2c(cc1-3)OCO2` [Berberine, 9,10-dimethoxy-5,6-dihydro-(1,3)dioxolo (4,5-g)isoquinolino (3,2-a)isoquinolin-7-ium], for which the IC50 (in general, the midpoint of a concentration-inhibition curve) amounted to 54 ± 5.1 µM.
